Results on 40 compounds are retold here after the SangsterLogP compilation.

Usually logD stands for lipophilicity at a set pH, counting ionised and neutral species. A high value points to a more lipophilic compound. Broadly, the logP is a log measure of how a compound divides between an organic and an aqueous phase.

Data set [1] is described as follows: method code SF-AS, from PMID: 4096735. Particulars: pH 7.4.
Test in data set [2]: not given
This is another data set of the same source.

Data set [3] can be described thus: method code SF-RC, from DOI: 10.1111/j.2042-7158.1981.tb11724.x.
The nature of data set [4]: method code SF, from DOI: 10.1111/j.1365-2958.1992.tb00853.x, PMID: 1640833.
Test in data set [5]: not given
The source holds these as a separate data set.

Test in data set [6]: not given
This is another data set of the same source.

Test in data set [7]: not given
This is another data set of the same source.

The nature of data set [8]: method code SF-AS, from DOI: 10.1016/0304-4165(87)90236-4, PMID: 2889474.
Test in data set [9]: not given
This is another data set of the same source.

Test in data set [10]: not given
The source holds these as a separate data set.

Data set [11] can be described thus: method code SF-RC, from DOI: 10.1021/jm050166g.s001, PMID: 16162001. Particulars: pH 7.4.
Data set [12] is described as follows: method code SF-HPLC, from Pan, J.; Wu, Z.; Hui, A.; Tao, M. (2011). Determination of partition coefficients of ginkgolide beta and its prodrug. Shizhen Guo Yi Guo Yao, 22(10)2397-2400.
Test in data set [13]: not given
The source holds these as a separate data set.

Data set [14] is described as follows: method code SF-HPLC, from DOI: 10.1016/0168-3659(92)90067-2.
Test in data set [15]: not given
This is another data set of the same source.

Test in data set [16]: not given
This is another data set of the same source.

The nature of data set [17]: method code G-RC, from DOI: 10.1016/0300-483x(85)90031-9, PMID: 4049435.
A short description of data set [18]: method code SF-HPLC, from DOI: 10.1016/j.ejps.2012.04.024, PMID: 22609526.
A short description of data set [19]: method code SF-AS, from DOI: 10.1021/jm00392a004, PMID: 3625703. Particulars: pH 6.9.
A short description of data set [20]: method code SF-HPLC, from DOI: 10.1002/jps.23034, PMID: 22213574. Particulars: pH 7.4.
Data set [21] is described as follows: method code SF-HPLC, from DOI: 10.1016/j.ijpharm.2010.12.025, PMID: 21185925.
Test in data set [22]: not given
The source holds these as a separate data set.

The nature of data set [23]: method code SF-AS, from DOI: 10.1021/jm00371a026, PMID: 6425501. Particulars: pH 7.4.
Test in data set [24]: not given
This is another data set of the same source.

Data set [25] in a line: method code SF-HPLC, from DOI: 10.1002/jps.23218, PMID: 22644947. Particulars: pH 7.0.
A short description of data set [26]: method code SF, from DOI: 10.1016/j.bmcl.2012.08.112, PMID: 23010264. Particulars: pH 7.4.
Test in data set [27]: not given
This is another data set of the same source.

A short description of data set [28]: method code SF-RC, from DOI: 10.1002/jlcr.1930.
Test in data set [29]: not given
This is another data set of the same source.

Test in data set [30]: not given
This is another data set of the same source.

Data set [31] is described as follows: method code SF, from DOI: 10.1021/jm300192x, PMID: 22519985. Particulars: pH 7.4.
A short description of data set [32]: method code SF-HPLC, from Suo, X.; Li, M.; Wang, Y.; Zhu, S. (2010). Study on oil-water partition coefficient of hydroxycamptothecin and its absorption efficiency in rat small intestine. Chinese Traditional Patent Medicine, …. Particulars: pH 7.4.
Test in data set [33]: not given
The source holds these as a separate data set.

Test in data set [34]: not given
The source holds these as a separate data set.

Test in data set [35]: not given
This is another data set of the same source.

Data set [36] in a line: method code SF-AS, from DOI: 10.1111/j.2042-7158.1983.tb02957.x, PMID: 6135774.
Data set [37] can be described thus: method code SF-HPLC, from DOI: 10.1211/0022357011778025, PMID: 11732751. Particulars: pH 5.0.
Data set [38] is described as follows: method code SF-HPLC, from DOI: 10.1016/s0223-5234(02)01360-0, PMID: 12008054. Particulars: pH 7.4.
The nature of data set [39]: method code SF-AS, from DOI: 10.1002/jps.2600720808, PMID: 6620139.

Non-standard residues stand in square brackets, D forms with d. Residues, ends and D or L forms follow the SMILES beside them.

Take `CCOC(=O)CCCCOc1ccc(-c2nc3c(N)nc(N)nc3nc2N)cc1`: the logD in data set [1] worked out at 0.8. The compound `CN1CCN(CC(=O)N2c3ccccc3C(=O)Nc3cccnc32)CC1` yielded a lipophilicity (logP) of 0.1. Turning to `CCN(CC)CCCN1c2ccccc2Sc2ccc(Cl)cc21`, the logP in data set [2] came out at 6.46. Regarding `CCC(=O)O[C@H]1CC[C@H]2[C@@H]3CCC4=CC(=O)CC[C@]4(C)[C@H]3CC[C@]12C`, in data set [3], the logP worked out at 3.72. For `C[C@]12CCC(=O)C[C@@H]1CC[C@@H]1[C@@H]2CC[C@]2(C)C(=O)CC[C@@H]12`, the logP in [4] stood at 3.6.

Regarding `CN(C)CCO[C@]1(c2ccccc2)C[C@H]2CC[C@]1(C)C2(C)C`, the logP in [5] came to 5.9. In [6], `COc1cc2c(cc1O)CC[C@@H]1C2CC[C@]2(C)[C@@H](O)CC[C@@H]12` (stereo in doubt) returned a logP of 2.86. In turn, `N#CCNC(=O)[C@@H]1CCCC[C@H]1C(=O)N1CCN(c2ccccc2)CC1` showed a lipophilicity (logP) in data set [7] of 1.8.

`C=C1C(=O)OC2CC(C)C3C=CC(=O)C3(C)C(OC(=O)C=C(C)C)C12` (stereo not given) returned a logP in data set [8] of 1.47. In data set [9], `COc1cc(NC(C)=O)c(I)cc1C(=O)NCCCCN1CC2CCC1C2` (stereo not given) gave a logP of 0.8.

The compound `CC(C)CC(O)C(O)C(CC1CCCCC1)NC(=O)OC(C)(C)C` (stereo not given) displayed a logP in data set [10] of 3.98. `CN(C)c1ccc(C=Cc2ccc(OCC(CO)CF)cc2)cc1` (stereo not given) showed a logD in data set [11] of 3.14. For the compound `CC1C(=O)OC2C(O)C34C5CC(C(C)(C)C)C36C(OC(=O)C6O)OC4(C(=O)O5)C12O` (stereo not given), the logP in data set [12] was 0.59.

`Cc1ccc(/C(=C\CN2CCCC2)c2ccccn2)cc1` returned a logP in [13] of 3.87. On to `CC(=O)N[C@H](Cc1ccc(O)cc1)C(=O)N[C@H](Cc1ccc(O)cc1)C(N)=O` (Ac-[dY]-[dY]-NH2), for which the logP in [14] is -0.16. Turning to `CCCCC[C@H](O)/C=C/[C@H]1[C@H](O)CC(=O)[C@@H]1C/C=C\CCCC(=O)O`, the logP in data set [15] was determined as 2.9.

The compound `C=CCN1CC[C@@]23CCCC[C@H]2[C@@H]1Cc1ccc(O)cc13` showed a logP in data set [16] of 3.48. As to `O=[N+]([O-])c1c2ccccc2c2ccc3cccc4ccc1c2c43`, in data set [17], the logP worked out at 5.44.

As for `O=c1c(O[C@@H]2OC[C@@H](O)[C@H](O)[C@H]2O)c(-c2ccc(O)c(O)c2)oc2cc(O)cc(O)c12`, the logP in [18] was determined as 1.75.

As for `CCCCCCCCCC1(c2ccncc2)CCC(=O)NC1=O` (stereo not given), in data set [19], the pH-dependent lipophilicity (logD) amounted to 4.64. For the compound `O=S(=O)(c1ccc(C(F)(F)F)cc1)N1c2cc(F)c(F)cc2-c2[nH]ncc2C1C1CC1` (stereo not given), the logD in data set [20] was found to be 3.91. In data set [21], `CCCc1nc(C[C@H](NC(=O)[C@@H]2CCC(=O)N2)C(=O)N2CCC[C@H]2C(N)=O)c[nH]1` yielded a logP of -1.07. Compound `CCOc1ccccc1OCCN[C@H](C)Cc1ccc(OC)c(S(N)(=O)=O)c1` returned a logP in [22] of 2.2. Compound `CO[C@@]12[C@H](COC(N)=O)C3=C(C(=O)C(C)=C(Nc4cccnc4)C3=O)N1C[C@@H]1N[C@@H]12` showed a logD in [23] of 0.52. Compound `O[C@H](CNC[C@H](O)[C@H]1COc2ccccc2O1)[C@@H]1COc2ccccc2O1` had a logP in data set [24] of 2.45. Consider `CCOC(=O)N(CCN(C(=O)OCC)C(=O)OCC)CCN(C(=O)OCC)C(=O)OCC`, for which the logD in data set [25] came to 2.3. Take `COCC(C1CC1)n1cc(Cl)nc(Nc2cc(C)c(OC)cc2C)c1=O` (stereo not given): the logD in [26] amounted to 4.4. As to `O=C(NN(C(=O)c1ccccc1)c1ccccc1)c1ccccc1`, in [27], the logP amounted to 3.32. In [28], `COc1cc2c(cc1OS(N)(=O)=O)CC[C@@H]1[C@@H]2CC[C@]2(C)[C@@H](OS(N)(=O)=O)CC[C@@H]12` returned a logP of 2.25. In data set [29], `C[C@H]1[C@H](N2CCS(=O)(=O)CC2)O[C@@H]2O[C@@]3(C)CC[C@H]4[C@H](C)CC[C@@H]1[C@@]24OO3` registered a logP of 2.49. Compound `CNCCC=C1c2ccccc2CCc2ccccc21` gave a logP in data set [30] of 4.4. `OCC1OC(c2ccc(N3CCc4ccccc43)cc2)C(O)C(O)C1O` (stereo not given) returned a logD in [31] of 2.3. `CC[C@@]1(O)C(=O)OCc2c1cc1n(c2=O)Cc2cc3cc(O)ccc3nc2-1` showed a logD in [32] of 1.33. As to `Cc1cc2c(-c3ccccn3)c[nH]c2c(C(=O)Nc2ncccc2C)n1`, the logP in data set [33] worked out at 4.7. `CO[C@H]1C[C@]2(C)[C@@H](O)CC[C@H]2[C@@H]2CCc3cc(O)ccc3[C@H]21` yielded a logP in data set [34] of 2.72. Turning to `CN(C)c1ccc(-c2ccc3cc(OCC(O)CF)ccc3n2)cc1` (stereo not given), in data set [35], the logP came out at 3.03. In the case of `COc1cc(N)c(Cl)cc1C(=O)NC1CCN(Cc2ccccc2)CC1`, in data set [36], the logP was determined as 2.99. In data set [37], `CCN(CC)C(=O)C(C#N)=Cc1cc(OC(=O)C(C)(C)C)c(O)c([N+](=O)[O-])c1` showed a logD of 2.24.

`COc1cc2nc(N3CCN(C(=O)C4CCCO4)CC3)nc(N)c2cc1OC` (stereo not given): the pH-dependent lipophilicity (logD) in data set [38] is 1.14. The compound `C[C@]12CCC(=O)C=C1CC[C@@H]1[C@@H]2CC[C@@]2(C)[C@H]1CC[C@]2(C)O` displayed a logP in data set [39] of 3.36.
